Test results published in US11396501B2, “Heteroaryl compounds as CXCR4 inhibitors, composition and method using the same” (CGENETECH (SUZHOU, CHINA) CO., LTD., priority 2017, dated 2022).

Molecular target: CXCR4 (Homo sapiens, UniProt P61073)
Experiment: HPB-ALL CXCR4 competitive binding assay (12G5 binding assay)
Parameters: HPB-ALL cells were maintained in RPMI-1640 (Gibico) supplemented with 10% FBS (Hyclone); endogenous in cells; host or cells: HPB-ALL cells
Conditions: HPB-ALL cells; competition with APC-conjugated anti-human CXCR4 clone 12G5 at its EC80; 4° C. for 3 h; FACS
Method: HPB-ALL CXCR4 Competitive Binding Assay
HPB-ALL cells were maintained in RPMI-1640 (Gibico) supplemented with 10% FBS (Hyclone). APC-conjugated anti-human CXCR4 was from Sungene. EC80 was first determined for 12G5 binding to CXCR4. Then the compounds for testing were added into 96-well plates serially diluted at a ratio of 1:3. Cells were washed once with ice-cold assay buffer (DPBS+2% HI-FBS) and then re-suspended in the same buffer at a final concentration of 1×10^6/mL. Cell suspension was then added into the wells and with the addition of APC-conjugated anti-human CXCR4 clone 12G5 at its EC80 determined. The mix of cell, compounds and APC-conjugated anti-human CXCR4 were incubated at 4° C. for 3 h before addition of 100 μL of 4% PFA. Cells were then washed once and resuspended in assay buffer and examined by FACS. The percent (%) effect at each concentration of compound was calculated and relative to the amount of calcium produced in the positive and negative control wells contained within each assay plate. The concentrations and % effect values for tested compounds were plotted and the concentration of compound required for 50% effect (IC50) was determined. Tables 2 summarize results of the CXCR4 competitive binding assay for selected compounds disclosed in the present disclosure. FIGS. 1-2 depict the IC50 curves of compounds A42 and A43.

Chain of CXCR4 (P61073 whole entry): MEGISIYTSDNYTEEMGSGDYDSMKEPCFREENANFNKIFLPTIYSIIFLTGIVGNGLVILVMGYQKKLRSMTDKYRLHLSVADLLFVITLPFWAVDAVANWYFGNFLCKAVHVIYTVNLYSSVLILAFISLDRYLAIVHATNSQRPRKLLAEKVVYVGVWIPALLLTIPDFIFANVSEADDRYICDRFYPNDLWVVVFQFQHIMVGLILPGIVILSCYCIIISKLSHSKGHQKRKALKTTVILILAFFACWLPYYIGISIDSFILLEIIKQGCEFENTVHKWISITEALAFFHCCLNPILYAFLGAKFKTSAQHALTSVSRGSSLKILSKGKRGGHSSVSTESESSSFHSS

## CN(C)C1CCN(c2cc(CN(C)C3CCCc4cccnc43)ncn2)C1 (stereo not shown) [Compound A39]
  IC50: 94 nM

## Cc1nc(CN(C)[C@H]2CCCc3cccnc32)cc(N2CCN3CCC[C@@H]3C2)n1 [Compound A68]
  IC50: 46 nM

## CSc1nc([C@@H](C)N(C)[C@@H]2CCCc3cccnc32)cc(N2CCN(C)CC2)n1 [Compound A35]
  IC50: 106 nM

## Cc1nc(CN(C)[C@H]2CCCc3cccnc32)cc(N2CCN(C3CC3)CC2)n1 [Compound A47]
  IC50: 58 nM

## CCN(Cc1cc(N2CCN(C)CC2)nc(C)n1)[C@H]1CCCc2cccnc21 [Compound A58]
  IC50: 19 nM

## CNc1nc(CN(C)C2CCCc3cccnc32)cc(N2CCN(C)CC2)n1 (stereo not shown) [Compound A18]
  IC50: 43 nM

## Cc1nc(CN(C)[C@H](C)c2ccccn2)cc(N2CCN(C)CC2)n1 [Compound A76]
  IC50: 220 nM

## Cc1nc(CN(C)C2c3ncccc3CCC23CC3)cc(N2CCN(C)CC2)n1 (stereo not shown) [Compound A41]
  IC50: 97 nM

## CC(C)Oc1nc(CN(C)C2CCCc3cccnc32)cc(N2CCN(C)CC2)n1 (stereo not shown) [Compound A31]
  IC50: 77 nM

## CCc1nc(CN(C)C2CCCc3cccnc32)cc(N2CCN(C)CC2)n1 (stereo not shown) [Compound A28]
  IC50: 21 nM

## Cc1nc([C@@H]2CCCCN2[C@@H]2CCCc3cccnc32)cc(N2CCN(C)CC2)n1 [Compound C8]
  IC50: 6960 nM

## Cc1ccc([C@@H]2CCCN2Cc2cc(N3CCN(C)CC3)nc(C)n2)nc1 [Compound C27]
  IC50: 279 nM

## CN1CCN(c2cc(CN(C)C3CCCc4cccnc43)nc(N(C)CCO)n2)CC1 (stereo not shown) [Compound A15]
  IC50: 606 nM

## Cc1nc(CN(C)[C@H]2CCCc3cccnc32)cc(N2CCN(C3COC3)CC2)n1 [Compound A49]
  IC50: 123 nM

## Cc1nc(CN(C)[C@H]2CCCc3cccnc32)cc(N2CCN(C)C[C@@H]2C)n1 [Compound A64]
  IC50: 21 nM

## CN1CCN(c2cc(CN(C)C3CCCc4cccnc43)nc(N3CCOCC3)n2)CC1 (stereo not shown) [Compound A14]
  IC50: 2250 nM

## Cc1nc(CN(C)C(CCCN)c2ccccn2)cc(N2CCN(C)CC2)n1 (stereo not shown) [Compound A38]
  IC50: 6940 nM

## CO[C@@H]1C[C@H](c2cc(N3CCN(C)CC3)nc(C)n2)N([C@H]2CCCc3cccnc32)C1 [Compound C21]
  IC50: 82 nM

## CSc1nc(CN(C)C2CCCc3cccnc32)c(C)c(N2CCN(C)CC2)n1 (stereo not shown) [Compound A27]
  IC50: 7.9 nM

## COCCN1CCN(c2cc(CN(C)C3CCCc4cccnc43)ncn2)CC1 (stereo not shown) [Compound A6]
  IC50: 1140 nM

## Cc1nc([C@H]2CCCN2[C@H]2CCCc3cccnc32)cc(N2CCN(C)CC2)n1 [Compound C5]
  IC50: 20 nM

## Cc1nc(CN(CC2CC2)C2CCCc3cccnc32)cc(N2CCN(C)CC2)n1 (stereo not shown) [Compound A59]
  IC50: 63 nM

## CN1CCN(c2ccnc(CN(C)C3CCCc4cccnc43)n2)CC1 (stereo not shown) [Compound A50, N-methyl-N-((4-(4-methylpiperazin-1-yl)pyrimidin-2-yl)methyl)-5,6,7,8-tetrahydroquinolin-8-amine]
  IC50: 211 nM

## CSc1nc([C@@H]2CCCN2[C@@H]2CCCc3cccnc32)cc(N2CCN(C)CC2)n1 [Compound C4]
  IC50: 2320 nM

## CN(C)c1ncc(CN(C)C2CCCc3cccnc32)c(NCCN)n1 (stereo not shown) [Compound B8, reference compound]
  IC50: > 10000 nM

## CCN1CCN(c2cc(CN(C)[C@H]3CCCc4cccnc43)nc(C)n2)CC1 [Compound A43]
  IC50: 11 nM

## CSc1nc([C@@H](C)N(C)[C@H]2CCCc3cccnc32)cc(N2CCN(C)CC2)n1 [Compound A34]
  IC50: 47 nM

## Cc1nc(CN(C)[C@H]2CCCc3cccnc32)cc(N2CCN(C)[C@@H](C)C2)n1 [Compound A66]
  IC50: 20 nM

## CCNc1nc(CN(C)C2CCCc3cccnc32)cc(N2CCN(C)CC2)n1 (stereo not shown) [Compound A19]
  IC50: 67 nM

## Cc1nc([C@H]2C[C@@H](O[Si](C)(C)C(C)(C)C)CN2[C@H]2CCCc3cccnc32)cc(N2CCN(C)CC2)n1 [Compound C15]
  IC50: 500 nM

## CSc1nc(CN(C)C2c3ncccc3CCC23CC3)cc(N2CCN(C)CC2)n1 (stereo not shown) [Compound A40]
  IC50: 110 nM

## Cc1nc(CN2CCC[C@H]2c2ncccc2C)cc(N2CCN(C)CC2)n1 [Compound C25]
  IC50: 68 nM

## Cc1nc(CN(C)[C@H]2CCCc3cccnc32)cc(N2CCN(C)C[C@H]2C)n1 [Compound A63, (S)-N-((6-((R)-2,4-dimethylpiperazin-1-yl)-2-methylpyrimidin-4-yl)methyl)-N-methyl-5,6,7,8-tetrahydroquinolin-8-amine]
  IC50: 29 nM

## CN(Cc1cc(NCCN2CCOCC2)ncn1)C1CCCc2cccnc21 (stereo not shown) [Compound A26]
  IC50: 41 nM

## CSc1nc([C@H]2CCCN2[C@H]2CCCc3cccnc32)cc(N2CCN(C)CC2)n1 [Compound C1]
  IC50: 93 nM

## Cc1nc(CN(C)[C@H]2CCCc3cccnc32)cc(N2CCN(C)CC2CO)n1 (stereo partly shown) [Compound A73]
  IC50: 32 nM

## Cc1nc([C@H]2CC(F)(F)CN2[C@H]2CCCc3cccnc32)cc(N2CCN(C)CC2)n1 [Compound C19]
  IC50: 1710 nM

## Cc1nc(CN(C)[C@H]2CCCc3cccnc32)cc(NCCN2CCOCC2)n1 [Compound A71]
  IC50: 90 nM

## CCN(Cc1cc(N2CCN(C)CC2)nc(C)n1)C1CCCc2cccnc21 (stereo not shown) [Compound A57]
  IC50: 21 nM

## CSc1nc(CN(C)C2CCCc3cccnc32)cc(N2CCN(C)CC2)n1 (stereo not shown) [Compound A3]
  IC50: 19 nM

## COc1nc(CN(C)C2CCCc3cccnc32)cc(N2CCN(C)CC2)n1 (stereo not shown) [Compound A10]
  IC50: 23 nM

## CN1CCN(c2cc(CN(C)[C@H]3CCCc4cccnc43)nc(C(F)(F)F)n2)CC1 [Compound A48]
  IC50: 240 nM

## Cc1nc(CN(C)[C@H]2CCCc3cccnc32)cc(N2CCC(N3CCN(C)CC3)CC2)n1 [Compound A74]
  IC50: 100 nM

## CN1CCN(c2cc(CN(C)C3CCCc4cccnc43)nc(N(C)C)n2)CC1 (stereo not shown) [Compound A12]
  IC50: 8000 nM

## Cc1nc(CN(C)[C@H]2CCCc3cccnc32)cc(N2CCC(N3CCOCC3)CC2)n1 [Compound A72]
  IC50: 146 nM

## CSc1nc([C@H](C)N(C)[C@@H]2CCCc3cccnc32)cc(N2CCN(C)CC2)n1 [Compound A33]
  IC50: 268 nM

## Cc1nc(CN(C)[C@H]2CCCc3cccnc32)cc(N2C[C@@H](C)N(C)[C@@H](C)C2)n1 [Compound A67]
  IC50: 12 nM

## CN(Cc1cc(N2CCNCC2)ncn1)C1CCCc2cccnc21 (stereo not shown) [Compound A7, N-methyl-N-((6-(piperazin-1-yl)pyrimidin-4-yl)methyl)-5,6,7,8-tetrahydroquinolin-8-amine]
  IC50: 393 nM

## Cc1ccnc([C@@H]2CCCN2Cc2cc(N3CCN(C)CC3)nc(C)n2)c1 [Compound C26]
  IC50: 206 nM

## CN(C)CCN(C)c1cc(CN(C)C2CCCc3cccnc32)ncn1 (stereo not shown) [Compound A2]
  IC50: 228 nM

## Cc1nc(CN(C)C(CCCNC(=O)OC(C)(C)C)c2ccccn2)cc(N2CCN(C)CC2)n1 (stereo not shown) [Compound A37]
  IC50: 4430 nM

## Cc1nc(CN(C)[C@H]2CCCc3cccnc32)cc(NCCCN2CCOCC2)n1 [Compound A70]
  IC50: 54 nM

## CN(Cc1cc(N2CCN(CCC#N)CC2)ncn1)C1CCCc2cccnc21 (stereo not shown) [Compound A8, 3-(4-(6-((methyl(5,6,7,8-tetrahydroquinolin-8-yl)amino)methyl)pyrimidin-4-yl)piperazin-1-yl)propanenitrile]
  IC50: 242 nM

## Cc1nc([C@H]2CCN2[C@@H]2CCCc3cccnc32)cc(N2CCN(C)CC2)n1 [Compound C14]
  IC50: 8110 nM

## Cc1nc(CN(C)C2CCCc3cccnc32)c(C#N)c(N2CCN(C)CC2)n1 (stereo not shown) [Compound A77]
  IC50: 9 nM
